Measured values: patent US20250051356A1, “RIFABUTIN ANALOGS FOR THE TREATMENT OF DISEASE” (priority 2021, published 2025)
≈ marks a conversion by molar mass, not a printed value. Like-named read-outs stand apart in the source and are kept apart here.

Assays:
Assay type in all cases: cell-based
[1] = system: M. abscessus subsp. abscessus ATCC 19977; test: MIC against M. abscessus in Middlebrook 7H9 + ADC; conditions: Mycobacteroides abscessus
[2] = system: S. aureus (UAMS-1625 strain); test: MIC by broth microdilution against S. aureus; conditions: Staphylococcus aureus, read-out: MIC S. aureus
[3] = system: A. baumannii (HUMC1 strain); test: MIC by broth microdilution against A. baumannii in RPMI + 10% FCS; conditions: Acinetobacter baumannii, read-out: MIC A. baumannii
[4] = ATCC19977, ATCC 19977, 7H9 + ADC, read-out: MIC M. abscessus
[5] = ATCC19977, read-out: MIC M. abscessus

Structure (SMILES) | MIC [1, 4] [µg/mL] | MIC [2] [µg/mL] | MIC ([3]; HUMC1 strain, RPMI + 10% FCS) [µg/mL] | MIC [1, 5] [µg/mL] | MIC [3] [µg/mL]
CO[C@H]1/C=C/O[C@@]2(C)Oc3c(C)c(O)c4c(c3C2=O)C2=NC3(CCN(CC(C)C)CC3)NC2=C(NC(=O)/C(C)=C\C=C\[C@H](C)[C@H](O)[C@@H](C)[C@@H](O)[C@@H](C)[C@H](OC(=O)CC(=O)Nc2ccc(CN3CCN(C)CC3)cc2)[C@@H]1C)C4=O [Compound 36] | 1 | 0.016 (≈ 0.0148 µM) | ≤ 0.002 | – | –
CO[C@H]1/C=C/O[C@@]2(C)Oc3c(C)c(O)c4c(c3C2=O)C2=NC3(CCN(CC(C)C)CC3)NC2=C(NC(=O)/C(C)=C\C=C\[C@H](C)[C@H](O)[C@@H](C)[C@@H](O)[C@@H](C)[C@H](OC(=O)CCC(=O)OCC2CCCN(C)C2)[C@@H]1C)C4=O (stereo partly drawn) [Compound 73] | 1 | 0.06 (≈ 0.059 µM) | ≤ 0.002 | – | –
CO[C@H]1/C=C/O[C@@]2(C)Oc3c(C)c(O)c4c(c3C2=O)C2=NC3(CCN(CC(C)C)CC3)NC2=C(NC(=O)/C(C)=C\C=C\[C@H](C)[C@H](O)[C@@H](C)[C@@H](O)[C@@H](C)[C@H](OC(=O)CC(=O)N2CCC(n3cccn3)CC2)[C@@H]1C)C4=O [Compound 60] | 0.5 | 0.03 (≈ 0.0293 µM) | ≤ 0.002 | – | –
CO[C@H]1/C=C/O[C@@]2(C)Oc3c(C)c(O)c4c(c3C2=O)C2=NC3(CCN(CC(C)C)CC3)NC2=C(NC(=O)/C(C)=C\C=C\[C@H](C)[C@H](O)[C@@H](C)[C@@H](O)[C@@H](C)[C@H](OC(=O)C(C)C(=O)N2CCC(Nc3ccccc3)CC2)[C@@H]1C)C4=O (stereo partly drawn) [Compound 41] | – | 0.5 (≈ 0.47 µM) | – | 0.5 | 0.016
CO[C@H]1/C=C/O[C@@]2(C)Oc3c(C)c(O)c4c(c3C2=O)C2=NC3(CCN(CC(C)C)CC3)NC2=C(NC(=O)/C(C)=C\C=C\[C@H](C)[C@H](O)[C@@H](C)[C@@H](O)[C@@H](C)[C@H](OC(=O)CC(=O)N2CCc3[nH]c5ccccc5c3C2)[C@@H]1C)C4=O [Compound 65] | 0.5 | 0.125 (≈ 0.12 µM) | 0.016 | – | –
COc1cc(CC2CCN(C(=O)CC(=O)O[C@H]3[C@H](C)[C@H](O)[C@H](C)[C@@H](O)[C@@H](C)/C=C/C=C(/C)C(=O)NC4=C5NC6(CCN(CC(C)C)CC6)N=C5c5c(c(O)c(C)c6c5C(=O)[C@@](C)(O/C=C/[C@H](OC)[C@H]3C)O6)C4=O)CC2)cc(C(F)(F)F)c1 [Compound 51] | 1 | 2 (≈ 1.74 µM) | 0.06 | – | –
CO[C@H]1/C=C/OC2(C)Oc3c(C)c(O)c4c(c3C2=O)C2=NC3(CCN(CC(C)C)CC3)NC2=C(NC(=O)/C(C)=C\C=C\[C@H](C)[C@H](O)[C@@H](C)[C@@H](O)[C@@H](C)[C@H](OC(=O)CC(=O)N2CCn3c2nc2ccccc23)[C@@H]1C)C4=O (stereo partly drawn) [Compound 89] | 0.5 | 0.125 (≈ 0.121 µM) | 0.016 | – | –
CCOC(=O)CCNC(=O)CC(=O)O[C@H]1[C@H](C)[C@H](O)[C@H](C)[C@@H](O)[C@@H](C)/C=C/C=C(/C)C(=O)NC2=C3NC4(CCN(CC(C)C)CC4)N=C3c3c(c(O)c(C)c4c3C(=O)[C@@](C)(O/C=C/[C@H](OC)[C@H]1C)O4)C2=O [Compound 16] | 2 | 0.03 (≈ 0.0303 µM) | 0.004 | – | –
CO[C@H]1/C=C/O[C@@]2(C)Oc3c(C)c(O)c4c(c3C2=O)C2=NC3(CCN(CC(C)C)CC3)NC2=C(NC(=O)/C(C)=C\C=C\[C@H](C)[C@H](O)[C@@H](C)[C@@H](O)[C@@H](C)[C@H](OC(=O)CCCC(=O)OC2CCN(C)C2)[C@@H]1C)C4=O (stereo partly drawn) [Compound 77] | 0.5 | 0.06 (≈ 0.0599 µM) | ≤ 0.002 | – | –
CO[C@H]1/C=C/O[C@@]2(C)Oc3c(C)c(O)c4c(c3C2=O)C2=NC3(CCN(CC(C)C)CC3)NC2=C(NC(=O)/C(C)=C\C=C\[C@H](C)[C@H](O)[C@@H](C)[C@@H](O)[C@@H](C)[C@H](OC(=O)CC(=O)NCC2CCN(C)CC2)[C@@H]1C)C4=O [Compound 5] | 1 | 0.125 (≈ 0.125 µM) | ≤ 0.002 | – | –
CO[C@H]1/C=C/O[C@@]2(C)Oc3c(C)c(O)c4c(c3C2=O)C2=NC3(CCN(CC(C)C)CC3)NC2=C(NC(=O)/C(C)=C\C=C\[C@H](C)[C@H](O)[C@@H](C)[C@@H](O)[C@@H](C)[C@H](OC(=O)CC(=O)N2CCC(NS(=O)(=O)c3ccccc3)CC2)[C@@H]1C)C4=O [Compound 61] | – | 0.125 (≈ 0.112 µM) | – | 0.5 | 0.008
CO[C@H]1/C=C/O[C@@]2(C)Oc3c(C)c(O)c4c(c3C2=O)C2=NC3(CCN(CC(C)C)CC3)NC2=C(NC(=O)/C(C)=C\C=C\[C@H](C)[C@H](O)[C@@H](C)[C@@H](O)[C@@H](C)[C@H](OC(=O)CC(=O)N2CCCCC2)[C@@H]1C)C4=O [Compound 8] | 0.5 | 0.016 (≈ 0.0167 µM) | 0.004 | – | –
CO[C@H]1/C=C/O[C@@]2(C)Oc3c(C)c(O)c4c(c3C2=O)C2=NC3(CCN(CC(C)C)CC3)NC2=C(NC(=O)/C(C)=C\C=C\[C@H](C)[C@H](O)[C@@H](C)[C@@H](O)[C@@H](C)[C@H](OC(=O)CC(=O)N2CC(Nc3ccc(F)cc3)C2)[C@@H]1C)C4=O [Compound 63] | 0.5 | 0.25 (≈ 0.241 µM) | 0.016 | – | –
CO[C@H]1/C=C/O[C@@]2(C)Oc3c(C)c(O)c4c(c3C2=O)C2=NC3(CCN(CC(C)C)CC3)NC2=C(NC(=O)/C(C)=C\C=C\[C@H](C)[C@H](O)[C@@H](C)[C@@H](O)[C@@H](C)[C@H](OC(=O)CCC(=O)NCCN(C)C)[C@@H]1C)C4=O [Compound 72] | 1 | 0.06 (≈ 0.0615 µM) | ≤ 0.002 | – | –
CO[C@H]1/C=C/O[C@@]2(C)Oc3c(C)c(O)c4c(c3C2=O)C2=NC3(CCN(CC(C)C)CC3)NC2=C(NC(=O)/C(C)=C\C=C\[C@H](C)[C@H](O)[C@@H](C)[C@@H](O)[C@@H](C)[C@H](OC(=O)CC(=O)N2CCC(n3c(=O)[nH]c5ccccc53)CC2)[C@@H]1C)C4=O [Compound 46] | 0.5 | 0.25 (≈ 0.229 µM) | 0.03 | – | –
CO[C@H]1/C=C/O[C@@]2(C)Oc3c(C)c(O)c4c(c3C2=O)C2=NC3(CCN(CC(C)C)CC3)NC2=C(NC(=O)/C(C)=C\C=C\[C@H](C)[C@H](O)[C@@H](C)[C@@H](O)[C@@H](C)[C@H](OC(=O)C(C)C(=O)N2CCC(n3c(=O)[nH]c5ccccc53)CC2)[C@@H]1C)C4=O (stereo partly drawn) [Compound 42] | 0.5 | 0.5 (≈ 0.453 µM) | 0.03 | – | –
CO[C@H]1/C=C/O[C@@]2(C)Oc3c(C)c(O)c4c(c3C2=O)C2=NC3(CCN(CC(C)C)CC3)NC2=C(NC(=O)/C(C)=C\C=C\[C@H](C)[C@H](O)[C@@H](C)[C@@H](O)[C@@H](C)[C@H](OC(=O)CC(=O)N2CCN(CCN3CCOCC3)CC2)[C@@H]1C)C4=O [Compound 115] | 0.5 | 0.06 (≈ 0.056 µM) | ≤ 0.002 | – | –
CO[C@H]1/C=C/O[C@@]2(C)Oc3c(C)c(O)c4c(c3C2=O)C2=NC3(CCN(CC(C)C)CC3)NC2=C(NC(=O)/C(C)=C\C=C\[C@H](C)[C@H](O)[C@@H](C)[C@@H](O)[C@@H](C)[C@H](OC(=O)CC(=O)N2CC(n3ccnn3)C2)[C@@H]1C)C4=O [Compound 64] | 1 | 0.06 (≈ 0.0602 µM) | ≤ 0.002 | – | –
COC(=O)CNC(=O)CC(=O)O[C@H]1[C@H](C)[C@H](O)[C@H](C)[C@@H](O)[C@@H](C)/C=C/C=C(/C)C(=O)NC2=C3NC4(CCN(CC(C)C)CC4)N=C3c3c(c(O)c(C)c4c3C(=O)[C@@](C)(O/C=C/[C@H](OC)[C@H]1C)O4)C2=O [Compound 17] | 2 | 0.03 (≈ 0.0312 µM) | ≤ 0.002 | – | –
CO[C@H]1/C=C/O[C@@]2(C)Oc3c(C)c(O)c4c(c3C2=O)C2=NC3(CCN(CC(C)C)CC3)NC2=C(NC(=O)/C(C)=C\C=C\[C@H](C)[C@H](O)[C@@H](C)[C@@H](O)[C@@H](C)[C@H](OC(=O)CC(=O)NCCN2CCN(C)CC2)[C@@H]1C)C4=O [Compound 20] | 1 | 0.03 (≈ 0.0295 µM) | ≤ 0.002 | – | –
CO[C@H]1/C=C/O[C@@]2(C)Oc3c(C)c(O)c4c(c3C2=O)C2=NC3(CCN(CC(C)C)CC3)NC2=C(NC(=O)/C(C)=C\C=C\[C@H](C)[C@H](O)[C@@H](C)[C@@H](O)[C@@H](C)[C@H](OC(=O)C(C)C(=O)N2CCc3[nH]c5ccccc5c3C2)[C@@H]1C)C4=O (stereo partly drawn) [Compound 43] | 0.5 | 0.5 (≈ 0.472 µM) | 0.06 | – | –
CO[C@H]1/C=C/O[C@@]2(C)Oc3c(C)c(O)c4c(c3C2=O)C2=NC3(CCN(CC(C)C)CC3)NC2=C(NC(=O)/C(C)=C\C=C\[C@H](C)[C@H](O)[C@@H](C)[C@@H](O)[C@@H](C)[C@H](OC(=O)CC(=O)N2CCN(C3CN(C)C3)CC2)[C@@H]1C)C4=O [Compound 111] | 0.5 | 0.125 (≈ 0.122 µM) | 0.06 | – | –
CO[C@H]1/C=C/O[C@@]2(C)Oc3c(C)c(O)c4c(c3C2=O)C2=NC3(CCN(CC(C)C)CC3)NC2=C(NC(=O)/C(C)=C\C=C\[C@H](C)[C@H](O)[C@@H](C)[C@@H](O)[C@@H](C)[C@H](OC(=O)CC(=O)N2CCN(CCN(C)C)CC2)[C@@H]1C)C4=O [Compound 113] | 0.5 | 0.06 (≈ 0.0582 µM) | 0.06 | – | –
CO[C@H]1/C=C/O[C@@]2(C)Oc3c(C)c(O)c4c(c3C2=O)C2=NC3(CCN(CC(C)C)CC3)NC2=C(NC(=O)/C(C)=C\C=C\[C@H](C)[C@H](O)[C@@H](C)[C@@H](O)[C@@H](C)[C@H](OC(=O)CC(=O)N2CCN(c3ccccc3S(N)(=O)=O)CC2)[C@@H]1C)C4=O [Compound 12] | 0.5 | 0.125 (≈ 0.112 µM) | 0.03 | – | –
COCCCNC(=O)CC(=O)O[C@H]1[C@H](C)[C@H](O)[C@H](C)[C@@H](O)[C@@H](C)/C=C/C=C(/C)C(=O)NC2=C3NC4(CCN(CC(C)C)CC4)N=C3c3c(c(O)c(C)c4c3C(=O)[C@@](C)(O/C=C/[C@H](OC)[C@H]1C)O4)C2=O [Compound 34] | 1 | 0.016 (≈ 0.0166 µM) | ≤ 0.002 | – | –
CO[C@H]1/C=C/O[C@@]2(C)Oc3c(C)c(O)c4c(c3C2=O)C2=NC3(CCN(CC(C)C)CC3)NC2=C(NC(=O)/C(C)=C\C=C\[C@H](C)[C@H](O)[C@@H](C)[C@@H](O)[C@@H](C)[C@H](OC(=O)CC(=O)N2CCC3(CC2)C(=O)NCN3c2ccccc2)[C@@H]1C)C4=O [Compound 48] | 0.5 | 0.25 (≈ 0.226 µM) | 0.03 | – | –
